Key:
[1] = system: Arabidopsis thaliana (K31-4-2) transformed with a Kasalath-derived CYP72A31 gene; assay: Drug sensitivity test on drug-containing MS medium, Arabidopsis thaliana transformed with Kasalath-derived CYP72A31 gene; assay type: in vivo; conditions: for Rate of emerging of true leaf (%): day 14 after seeding
Experimental: (§1) A bag of mixed salts for Murashige-Skoog (MS) medium (manufactured by Wako Pure Chemical Industries, Ltd.) 20 g of sucrose, 3 mg of thiamin hydrochloride, 5 mg of nicotinic acid, and 0.5 mg of pyridoxine hydrochloride were dissolved in distilled water, and filled up to 1 L with distilled water. After pH adjustment to 5.8 to 6.3 with 1 M KOH, 3 g of Gelrite was added to the solution, and dissolved using a microwave. After that, the mixture was autoclaved to prepare a sterile MS medium. A test drug was added to this sterile MS medium so as to make a final concentration of 1.3, 4.1, 12, 37, 110, or 330 nM. Arabidopsis thaliana from a sterilized seed was seeded in the drug-containing MS medium, and cultivated at 22° C. for 12 to 14 days in a continuous light period.
(§2) Note that the drugs used in this Example were bispyribac-sodium, pyrithiobac-sodium, pyriminobac, bensulfuron-methyl, penoxsulam, pyrazosulfuron-ethyl, amidosulfuron, imazosulfuron, nicosulfuron, and propyrisulfuron.

[2] = system: non-transformed Arabidopsis thaliana (NT); assay: Drug sensitivity test on drug-containing MS medium, non-transformed Arabidopsis thaliana; assay type: in vivo
Experimental: as §1, §2

[3] = system: CYP72A31-overexpressing rice (K31-4-6-2); assay: Drug sensitivity test on gellan gum medium, CYP72A31-overexpressing rice; assay type: in vivo, Oryza sativa; conditions: for CK ratio (%): plant height compared with drug-free medium
Experimental: (§3) Next, 1.6 g of Hoagland's mix (Sigma-Aldrich Corporation) and 3 g of Gelrite (Wako Pure Chemical Industries, Ltd.) were suspended in 1 L of distilled water. Then, the mixture was dissolved and heated in a microwave. After that, the mixture was cooled to 50 to 60 degree C., and BS was added at a final concentration of 1 μM. This mixture was dispensed into 30-mL tubular bottles at 15 mL to prepare a gellan gum medium. Next, CSSL rice paddies were soaked in 0.5% sodium hypochlorite for about 20 minutes, and were then washed well with water. These paddies were soaked in distilled water, and kept at 27 degree C. for 3 to 5 days for germination. Germinating seeds were softly planted in sprout-side up on the gellan gum medium. These samples, together with a beaker filled with distilled water, were placed in a transparent case, which was then covered with a clear-plastic wrap. These samples were grown at 27 degree C. under fluorescent light illumination (14 hours of a light period and 10 hours of a dark period) for 7 to 9 days.
(§4) According to the method of Example 1, a gellan gum medium containing a test drug at a concentration of 0.01, 0.1, 1, or 10 μM was prepared. Rice seeds were sterilized, germinated, seeded in the medium, and cultivated.

[4] = system: Wild-type rice (Nipponbare); assay: Drug sensitivity test on gellan gum medium, wild-type rice; assay type: in vivo, Oryza sativa; conditions: plant height compared with drug-free medium
Experimental: as §3, §4

[5] = K31-4-2, Tables 2 and 3, FIGS. 20 to 24
[6] = maximum drug concentration for 80% or more emerging of true leaves, K31-4-2 / NT, day 14
[7] = drug 1.3 nM, day 14 after seeding
[8] = drug 4.1 nM, day 14 after seeding
[9] = drug 12 nM, day 14 after seeding
[10] = drug 37 nM, day 14 after seeding
[11] = drug 110 nM, day 14 after seeding
[12] = drug 330 nM, day 14 after seeding

SMILES	Resistance of transformed Arabidopsis thaliana to the drug [1, 5]	Rate of emerging of true leaf (%) ([1]; K31-4-2, drug 1.3 nM)	Rate of emerging of true leaf (%) ([1]; K31-4-2, drug 4.1 nM)	Rate of emerging of true leaf (%) ([1]; K31-4-2, drug 12 nM)	Rate of emerging of true leaf (%) ([1]; K31-4-2, drug 37 nM)	Rate of emerging of true leaf (%) ([1]; K31-4-2, drug 110 nM)	Rate of emerging of true leaf (%) ([1]; K31-4-2, drug 330 nM)	Ratio of sensitivity [1, 6]	Rate of emerging of true leaf (%) [2, 7]	Rate of emerging of true leaf (%) [2, 8]	Rate of emerging of true leaf (%) [2, 9]	Rate of emerging of true leaf (%) [2, 10]	Rate of emerging of true leaf (%) [2, 11]	Rate of emerging of true leaf (%) [2, 12]	Ratio of sensitivity ([1]; in vivo)	Resistance of transformed Arabidopsis thaliana to the drug ([1]; in vivo)	other results
COc1cc(OC)nc(NC(=O)NS(=O)(=O)c2ncccc2C(=O)N(C)C)n1 [Nicosulfuron, nicosulfuron]	exhibited resistance	100%	100%	100%	100%	100%	10%	27	100%	100%	0%	0%	0%	0%	–	–	–
COc1cc(OC)nc(NC(=O)NS(=O)(=O)N(C)S(C)(=O)=O)n1 [Amidosulfuron, amidosulfuron]	–	–	–	–	–	–	–	–	100%	100%	0%	0%	0%	0%	3	exhibited resistance	–
CCOC(=O)c1cnn(C)c1S(=O)(=O)NC(=O)Nc1nc(OC)cc(OC)n1 [Pyrazosulfuron-ethyl, pyrazosulfuron-ethyl]	exhibited resistance	100%	100%	90%	0%	0%	0%	>9	0%	0%	0%	0%	0%	0%	–	–	–
COC(=O)c1ccccc1CS(=O)(=O)NC(=O)Nc1nc(OC)cc(OC)n1 [Bensulfuron-methyl, bensulfuron-methyl]	–	–	–	–	–	–	–	–	30%	0%	0%	0%	0%	0%	>28	exhibited resistance	–
COc1cc(OC)nc(Sc2cccc(Cl)c2C(=O)O)n1 [Pyrithiobac-sodium, pyrithiobac-sodium]	–	–	–	–	–	–	–	–	–	–	–	–	–	–	3	exhibited resistance	Rate of emerging of true leaf (%) ([2]; drug 1.3 nM, day 12 after seeding): 44%; Rate of emerging of true leaf (%) ([2]; drug 4.1 nM, day 12 after seeding): 44%; Rate of emerging of true leaf (%) ([2]; drug 12 nM, day 12 after seeding): 0%; Rate of emerging of true leaf (%) ([2]; drug 37 nM, day 12 after seeding): 0%; Rate of emerging of true leaf (%) ([2]; drug 110 nM, day 12 after seeding): 0%; Rate of emerging of true leaf (%) ([2]; drug 330 nM, day 12 after seeding): 0%
CCc1cc(C)cc(CC)c1-c1c(OC(=O)C(C)(C)C)n2n(c1=O)CCOCC2 [Pinoxaden, pinoxaden]	–	–	–	–	–	–	–	–	–	–	–	–	–	–	–	–	Resistance of transformed rice to the drug ([3]; Table 4 and FIG. 25): exhibited resistance; Ratio of sensitivity ([3]; maximum drug concentration for CK ratio of 40% or more, K31-4-6-2 / wild-type rice): 10; CK ratio (%) ([3]; K31-4-6-2, drug 0.01 μM): 95%; CK ratio (%) ([3]; K31-4-6-2, drug 0.1 μM): 48%; CK ratio (%) ([3]; K31-4-6-2, drug 1 μM): 9%; CK ratio (%) ([3]; K31-4-6-2, drug 10 μM): 3%; CK ratio (%) ([4]; drug 0.01 μM): 59%; CK ratio (%) ([4]; drug 0.1 μM): 3%; CK ratio (%) ([4]; drug 1 μM): 3%; CK ratio (%) ([4]; drug 10 μM): 3%
CON=C(C)c1cccc(Oc2nc(OC)cc(OC)n2)c1C(=O)O [Pyriminobac, pyriminobac]	exhibited resistance	100%	100%	100%	100%	100%	50%	27	100%	90%	10%	0%	0%	0%	–	–	–
CCCc1ccc2nc(Cl)c(S(=O)(=O)NC(=O)Nc3nc(OC)cc(OC)n3)n2n1 [Propyrisulfuron, propyrisulfuron]	exhibited resistance	100%	100%	100%	70%	0%	0%	>9	10%	0%	0%	0%	0%	0%	–	–	–
COc1cnc(OC)n2nc(NS(=O)(=O)c3c(OCC(F)F)cccc3C(F)(F)F)nc12 [Penoxsulam, penoxsulam]	–	–	–	–	–	–	–	–	50%	10%	0%	0%	0%	0%	>254	exhibited resistance	–
COc1cc(OC)nc(NC(=O)NS(=O)(=O)c2c(Cl)nc3ccccn23)n1 [Imazosulfuron, imazosulfuron]	exhibited resistance	100%	100%	100%	100%	90%	0%	>85	40%	10%	0%	0%	0%	0%	–	–	–

Source: patent US10000765B2, “Gene encoding cytochrome P450, and use thereof” (NATIONAL INSTITUTE OF AGROBIOLOGICAL SCIENCES, priority 2011, dated 2018)
